Laboratory results from US20260070945A1, “MACROCYCLIC IMMUNOMODULATORS” (Bristol-Myers Squibb Company, priority 2022, published 2026).
pIC50: −log10 of the molar value. Where a SMILES comes first, the peptide text is derived from it. Bridges are numbered along the chain shown (N, C = ends). [ ]: non-standard residue; d: D form. The star is where a group is joined. Bip = N[C@@H](Cc1ccc(-c2ccccc2)cc1)C(=O)O; Phe(3-Me) = Cc1cccc(C[C@H](N)C(=O)O)c1; Cha = N[C@@H](CC1CCCCC1)C(=O)O; Carboxymethyl = O=C(O)C*; NMeA = CN[C@@H](C)C(=O)O; Orn = NCCC[C@H](N)C(=O)O; Aun = NCCCCCCCCCCC(=O)O; Dab = NCC[C@H](N)C(=O)O; AEEA = NCCOCCOCC(=O)O

Molecular target: T1, PD-1/PD-L1 interaction (PE-labeled human PD-L1-Ig binding to Jurkat cell line over-expressing human PD-1) (Homo sapiens, UniProt Q15116)
T1 construct: expressed in transfected cells; host or cells: Jurkat
Test: Jurkat-PD-1 Cell Binding High-Content Screening Assay (CBA)
Conditions: Jurkat-hPD-1 cells, PE-labeled PD-L1-Ig 20 nM final; read-out: Jurkat HPD1 PDL1 IC50
Procedure, shortened: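 Cells 8×10^3/well, DMEM + 10% FCS; cpd 2 h, 37 °C; PE–PD-L1-Ig 20 nM final, 1 h; PFA fix + Hoechst 33342, 3× dPBS wash; high-content imager.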

T1 sequence (Q15116 25-288): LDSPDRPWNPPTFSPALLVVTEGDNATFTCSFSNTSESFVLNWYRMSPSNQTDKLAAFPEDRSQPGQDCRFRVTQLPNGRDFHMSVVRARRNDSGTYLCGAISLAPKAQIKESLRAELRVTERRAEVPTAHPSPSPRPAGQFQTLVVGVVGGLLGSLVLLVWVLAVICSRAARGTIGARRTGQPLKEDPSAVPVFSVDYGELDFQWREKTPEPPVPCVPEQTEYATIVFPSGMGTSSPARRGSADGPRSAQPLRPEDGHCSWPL

| Structure (SMILES) | pIC50 |
| --- | --- |
| Cc1cccc(C[C@@H]2NC(=O)[C@H](CC(=O)O)NC(=O)[C@H](Cc3ccc(OCC(=O)O)cc3)NC(=O)[C@H]([C@@H](C)O)NC(=O)CSC[C@@H](C(=O)N[C@@H](CCCN)C(=O)NCCOCCOCC(=O)NCCCCCCCCCCC(=O)O)NC(=O)[C@H](CO)NC(=O)[C@H](C(C)C)NC(=O)[C@H](CC3CCCCC3)NC(=O)[C@H](CC(N)=O)NC(=O)[C@@H](CC(C)C)NC(=O)[C@H](C)N(C)C(=O)[C@H](Cc3ccc(OCC(=O)O)cc3)NC(=O)[C@H](Cc3ccc(-c4ccccc4)cc3)NC(=O)[C@H](Cc3ccc(OCC(=O)O)cc3)NC2=O)c1 [Example 1367] ({CH2CO}-TY(Carboxymethyl)D[Phe(3-Me)]Y(Carboxymethyl)[Bip]Y(Carboxymethyl)[NMeA][dL]N[Cha]VSC[Orn][AEEA][Aun]-OH; thioether N-14) | 7.25 |
| Cc1cccc(C[C@@H]2NC(=O)[C@H](CC(=O)O)NC(=O)[C@H](Cc3ccc(OCC(=O)O)cc3)NC(=O)[C@H]([C@@H](C)O)NC(=O)CSC[C@@H](C(=O)N[C@@H](CCN)C(=O)NCCOCCOCC(=O)NCCCCCCCCCCC(=O)O)NC(=O)[C@H](CO)NC(=O)[C@H](C(C)C)NC(=O)[C@H](CC3CCCCC3)NC(=O)[C@H](CCN)NC(=O)[C@@H](CC(C)C)NC(=O)[C@H](C)N(C)C(=O)[C@H](Cc3ccc(OCC(=O)O)cc3)NC(=O)[C@H](Cc3ccc(-c4ccccc4)cc3)NC(=O)[C@H](Cc3ccc(OCC(=O)O)cc3)NC2=O)c1 [Example 1368] ({CH2CO}-TY(Carboxymethyl)D[Phe(3-Me)]Y(Carboxymethyl)[Bip]Y(Carboxymethyl)[NMeA][dL][Dab][Cha]VSC[Dab][AEEA][Aun]-OH; thioether N-14) | 7.74 |
| Cc1cccc(C[C@@H]2NC(=O)[C@H](CC(=O)O)NC(=O)[C@H](Cc3ccc(OCC(=O)O)cc3)NC(=O)[C@H]([C@@H](C)O)NC(=O)CSC[C@@H](C(=O)N[C@@H](CCN)C(=O)NCCOCCOCC(=O)NCCCCCCCCCCC(=O)O)NC(=O)[C@H](CCC(=O)O)NC(=O)[C@H](C(C)C)NC(=O)[C@H](CC3CCCCC3)NC(=O)[C@H](CCN)NC(=O)[C@@H](CC(C)C)NC(=O)[C@H](C)N(C)C(=O)[C@H](Cc3ccc(OCC(=O)O)cc3)NC(=O)[C@H](Cc3ccc(-c4ccccc4)cc3)NC(=O)[C@H](Cc3ccc(OCC(=O)O)cc3)NC2=O)c1 [Example 1369] ({CH2CO}-TY(Carboxymethyl)D[Phe(3-Me)]Y(Carboxymethyl)[Bip]Y(Carboxymethyl)[NMeA][dL][Dab][Cha]VEC[Dab][AEEA][Aun]-OH; thioether N-14) | 7.92 |
| Cc1cccc(C[C@@H]2NC(=O)[C@H](CC(=O)O)NC(=O)[C@H](Cc3ccc(OCC(=O)O)cc3)NC(=O)[C@H]([C@@H](C)O)NC(=O)CSC[C@@H](C(=O)N[C@@H](CCN)C(=O)NCCOCCOCC(=O)NCCCCCCCCCCC(=O)O)NC(=O)[C@H](CC(N)=O)NC(=O)[C@H](C(C)C)NC(=O)[C@H](CC3CCCCC3)NC(=O)[C@H](CCN)NC(=O)[C@@H](CC(C)C)NC(=O)[C@H](C)N(C)C(=O)[C@H](Cc3ccc(OCC(=O)O)cc3)NC(=O)[C@H](Cc3ccc(-c4ccccc4)cc3)NC(=O)[C@H](Cc3ccc(OCC(=O)O)cc3)NC2=O)c1 [Example 1370] ({CH2CO}-TY(Carboxymethyl)D[Phe(3-Me)]Y(Carboxymethyl)[Bip]Y(Carboxymethyl)[NMeA][dL][Dab][Cha]VNC[Dab][AEEA][Aun]-OH; thioether N-14) | 7.86 |
| Cc1cccc(C[C@@H]2NC(=O)[C@H](CC(=O)O)NC(=O)[C@H](Cc3ccc(OCC(=O)O)cc3)NC(=O)[C@H]([C@@H](C)O)NC(=O)CSC[C@@H](C(=O)N[C@@H](CCCN)C(=O)NCCOCCOCC(=O)NCCCCCCCCCCC(=O)O)NC(=O)[C@H]([C@@H](C)O)NC(=O)[C@H](C(C)C)NC(=O)[C@H](CC3CCCCC3)NC(=O)[C@H](CCN)NC(=O)[C@@H](CC(C)C)NC(=O)[C@H](C)N(C)C(=O)[C@H](Cc3ccc(OCC(=O)O)cc3)NC(=O)[C@H](Cc3ccc(-c4ccccc4)cc3)NC(=O)[C@H](Cc3ccc(OCC(=O)O)cc3)NC2=O)c1 [Example 1371] ({CH2CO}-TY(Carboxymethyl)D[Phe(3-Me)]Y(Carboxymethyl)[Bip]Y(Carboxymethyl)[NMeA][dL][Dab][Cha]VTC[Orn][AEEA][Aun]-OH; thioether N-14) | 7.56 |
| Cc1cccc(C[C@@H]2NC(=O)[C@H](CC(=O)O)NC(=O)[C@H](Cc3ccc(OCC(=O)O)cc3)NC(=O)[C@H]([C@@H](C)O)NC(=O)CSC[C@@H](C(=O)N[C@@H](CCCN)C(=O)NCCOCCOCC(=O)NCCCCCCCCCCC(=O)O)NC(=O)[C@H](CO)NC(=O)[C@H](C(C)C)NC(=O)[C@H](CC3CCCCC3)NC(=O)[C@H](CCN)NC(=O)[C@@H](CC(C)C)NC(=O)[C@H](C)N(C)C(=O)[C@H](Cc3ccc(OCC(=O)O)cc3)NC(=O)[C@H](Cc3ccc(-c4ccccc4)cc3)NC(=O)[C@H](Cc3ccc(OCC(=O)O)cc3)NC2=O)c1 [Example 1372] ({CH2CO}-TY(Carboxymethyl)D[Phe(3-Me)]Y(Carboxymethyl)[Bip]Y(Carboxymethyl)[NMeA][dL][Dab][Cha]VSC[Orn][AEEA][Aun]-OH; thioether N-14) | 7.55 |
| Cc1cccc(C[C@@H]2NC(=O)[C@H](CC(=O)O)NC(=O)[C@H](Cc3ccc(OCC(=O)O)cc3)NC(=O)[C@H]([C@@H](C)O)NC(=O)CSC[C@@H](C(=O)N[C@@H](CCCN)C(=O)NCCOCCOCC(=O)NCCCCCCCCCCC(=O)O)NC(=O)[C@H](CCC(=O)O)NC(=O)[C@H](C(C)C)NC(=O)[C@H](CC3CCCCC3)NC(=O)[C@H](CCN)NC(=O)[C@@H](CC(C)C)NC(=O)[C@H](C)N(C)C(=O)[C@H](Cc3ccc(OCC(=O)O)cc3)NC(=O)[C@H](Cc3ccc(-c4ccccc4)cc3)NC(=O)[C@H](Cc3ccc(OCC(=O)O)cc3)NC2=O)c1 [Example 1373] ({CH2CO}-TY(Carboxymethyl)D[Phe(3-Me)]Y(Carboxymethyl)[Bip]Y(Carboxymethyl)[NMeA][dL][Dab][Cha]VEC[Orn][AEEA][Aun]-OH; thioether N-14) | 7.50 |
| Cc1cccc(C[C@@H]2NC(=O)[C@H](CC(=O)O)NC(=O)[C@H](Cc3ccc(OCC(=O)O)cc3)NC(=O)[C@H]([C@@H](C)O)NC(=O)CSC[C@@H](C(=O)N[C@@H](CCCN)C(=O)NCCOCCOCC(=O)NCCCCCCCCCCC(=O)O)NC(=O)[C@H](CC(N)=O)NC(=O)[C@H](C(C)C)NC(=O)[C@H](CC3CCCCC3)NC(=O)[C@H](CCN)NC(=O)[C@@H](CC(C)C)NC(=O)[C@H](C)N(C)C(=O)[C@H](Cc3ccc(OCC(=O)O)cc3)NC(=O)[C@H](Cc3ccc(-c4ccccc4)cc3)NC(=O)[C@H](Cc3ccc(OCC(=O)O)cc3)NC2=O)c1 [Example 1374] ({CH2CO}-TY(Carboxymethyl)D[Phe(3-Me)]Y(Carboxymethyl)[Bip]Y(Carboxymethyl)[NMeA][dL][Dab][Cha]VNC[Orn][AEEA][Aun]-OH; thioether N-14) | 7.76 |
| Cc1cccc(C[C@@H]2NC(=O)[C@H](CC(=O)O)NC(=O)[C@H](Cc3ccc(OCC(=O)O)cc3)NC(=O)[C@H]([C@@H](C)O)NC(=O)CSC[C@@H](C(=O)N[C@@H](CCN)C(=O)NCCOCCOCC(=O)NCCCCCCCCCCC(=O)O)NC(=O)[C@H]([C@@H](C)O)NC(=O)[C@H](C(C)C)NC(=O)[C@H](CC3CCCCC3)NC(=O)[C@H](CCC(=O)O)NC(=O)[C@@H](CC(C)C)NC(=O)[C@H](C)N(C)C(=O)[C@H](Cc3ccc(OCC(=O)O)cc3)NC(=O)[C@H](Cc3ccc(-c4ccccc4)cc3)NC(=O)[C@H](Cc3ccc(OCC(=O)O)cc3)NC2=O)c1 [Example 1375] ({CH2CO}-TY(Carboxymethyl)D[Phe(3-Me)]Y(Carboxymethyl)[Bip]Y(Carboxymethyl)[NMeA][dL]E[Cha]VTC[Dab][AEEA][Aun]-OH; thioether N-14) | 7.50 |
